According to patent publication US20260157955A1, “DEDIFFERENTIATED PLANT CELLS OF THE GENUS PAEONIA, EXTRACTS THEREOF AND COSMETIC USES THEREOF” (L'OREAL, priority 2021, published 2026):

What was measured:
Format in all cases: cell-based
Details in all cases: 0.1 μM, 24 hours, human epidermal keratinocytes, n=2, vs control
CLDN1 = assay: Expression of transcripts in human keratinocytes (RT-qPCR): CLDN1
Protocol: (§1) Human epidermal keratinocytes were seeded in a 24-well culture plate and cultured for 72 hours at 37° C. and 5% CO2 in culture medium with renewal of the culture medium after the first 24 hours. At the end of the incubation, the culture medium was replaced with assay medium (supplemented with 1.5 mM CaCl2) containing starting or reference material (retinoic acid) or not containing same (control), and cells were incubated for another 24 hours. All the experimental conditions were performed in n=2. At the end of the treatment, the cells were washed twice in PBS (without CaCl2, without MgCl2) and RNA extraction was carried out using TriPure Isolation Reagent® according to the manufacturer's recommendations. The relative expression of the selected markers was measured by two-step RT-qPCR. First, reverse transcription was performed with the aid of Transcriptor Reverse Transcriptase (Roche) according to the manufacturer's recommendations. Then, PCR experiments were performed using a LightCycler® 480 real-time PCR system with a SYBR®Green incorporation measurement system (Roche).

AQP3 = assay: Expression of transcripts in human keratinocytes (RT-qPCR): AQP3
Protocol: as §1

CNFN = assay: Expression of transcripts in human keratinocytes (RT-qPCR): CNFN
Protocol: as §1

SPRR1A = assay: Expression of transcripts in human keratinocytes (RT-qPCR): SPRR1A
Protocol: as §1

TGM1 = assay: Expression of transcripts in human keratinocytes (RT-qPCR): TGM1
Protocol: as §1

## CC1=C(/C=C/C(C)=C/C=C/C(C)=C/C(=O)O)C(C)(C)CCC1 [Retinoic acid, retinoic acid]
CLDN1
  relative expression of CLDN1: 0.85
AQP3
  relative expression of AQP3: 1.04
CNFN
  relative expression of CNFN: 0.46
SPRR1A
  relative expression of SPRR1A: 0.26
TGM1
  relative expression of TGM1: 0.49
